Results published in patent US20250326748A1, “COMPOUNDS AND METHODS FOR MODULATING SPLICING” (REMIX THERAPEUTICS INC., priority 2022, published 2025).
Where a name gives a salt, the structure may show the parent alone. Read-outs that look alike come from different tables or passages of the source.

Columns and labels:
[1] = system: Target C; assay: HiBiT protein abundance assay, Target C (K562 HiBiT knock-in); format: cell-based, human; conditions: HiBiT knock-in cells, 24 hours
Procedure: Cells were maintained in IMDM with 10% FBS. Before the assay, cells were diluted with […] growth media (IMDM+1% FBS media) and were seeded in a 384-well plate at a density of 10000 cells/well (for each cell line listed in Table 6). Each compound was prepared as a 10-point 3-old serial dilution in DMSO with the top dose at a final concentration of 10 μM in the well. Unmodified K562 cells were added at the previously specified density with DMSO to serve as an assay baseline and positive control (PC) and DMSO only with the respective modified cell lines was added to the negative control (NC) columns. Final DMSO concentration was kept at or below 0.25%. Treated cell plates were placed in an incubator at 37° C. with 5% CO2 for 24 hours. After 24 hours, 25 μL of Complete HiBit Lytic reagent was added to each well at room temperature (e.g. one plate requiring 10 ml Lytic Buffer, 100 μL LgBiT Protein, 200 μL Lytic Substrate), shaken for 5 minutes at 600 RPM, then left to sit for 10 minutes for signal to stabilize before reading on a Spark Cyto plate reader (Tecan) with a 500 ms measurement time.
To determine compound effects on protein abundance of each target in Table 6, the percent response for each respective cell line was calculated at each compound concentration as follows:
For the normalized response at each concentration, a four-parameter logistical regression was fit to the data and the response was interpolated at the 50% value to determine a concentration for protein abundance at 50% (IC50) the untreated control.

[2] = system: MYB mRNA; assay: Splicing RT-qPCR assay, MYB canonical (CJ) and alternative (AJ) junction mRNA; format: cell-based, human; conditions: Homo sapiens; for IC50: canonical junction mRNA; for AC50: alternative junction mRNA, read-out: MYB AJ (AC50, increase in AJ mRNA)
Summary of the method: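 Splicing switches are scored by TaqMan qPCR on cell lysate, comparing abundance of the normal exon junction with the new junction formed when the alternative exon is included. A673 results are referenced to PPIA and K562 results to GAPDH or GUSB. Compound exposure lasts 24 h.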

[3] = qPCR panel, read-out: MYB CJ (decrease in CJ mRNA levels, IC50)
[4] = RT-qPCR, A673 or K562 cells, 24 hours treatment
[5] = RT-qPCR, A673 or K562 cells, 24 hours treatment, read-out: MYB CJ (IC50, decrease in CJ mRNA)

Row | IC50 [1] [nM] | IC50 [2, 3] [nM] | IC50 [2, 5] [nM] | Structure (SMILES) | AC50 [2, 4] [nM]
1 | 1000 to 10000 | 100 to 1000 | 100 to 1000 | CN[C@H]1CN(c2cnc3nc(-c4cc5cn(C)nc5c(C)c4O)ccc3c2)C[C@@H]1F (single isomer, unassigned) [Compound 131] | 100 to 1000
2 | 1000 to 10000 | 100 to 1000 | 100 to 1000 | Cc1cn2cc(-c3ccc4cc(N5C[C@@H](C)N[C@@H](C)C5)cnc4n3)cc(F)c2n1 [Compound 350] | 1000 to 10000
3 | 100 to 1000 | < 100 | < 100 | CN[C@@H]1CCN(c2cnc3nc(-c4cc(C)c5nc(C)cn5n4)ccc3c2)C1 [Compound 117] | 100 to 1000
4 | 1000 to 10000 | > 10000 | > 10000 | Cn1cc2cc(-c3cnc4nc(N5CCC(NC(C)(C)C)C5)ccc4c3)c(O)cc2n1 (centres unmarked) [Compound 133, 5-{7-[3-(tert-butylamino)pyrrolidin-1-yl]-1,8-naphthyridin-3-yl}-2-methylindazol-6-ol] | > 10000
5 | 100 to 1000 | 100 to 1000 | 100 to 1000 | Cn1cc2cc(-c3ccc4cc(N5CC[C@H](NCC6CC6)C5)cnc4n3)c(O)cc2n1 [Compound 314] | 100 to 1000
6 | < 100 | < 100 | < 100 | CCN[C@@H]1CCN(c2cnc3nc(-c4cc5cn(C)nc5c(C)c4O)ccc3c2)C1 [Compound 124] | < 100
7 | 1000 to 10000 | < 100 | < 100 | Cc1c(O)c(-c2cc(Cl)c3cc(N4CCNC5(CC5)C4)cnc3n2)cc2cn(C)nc12 [Compound 381] | < 100
8 | 1000 to 10000 | < 100 | < 100 | CN[C@H]1CCN(c2cnc3nc(-c4cc5cn(C)nc5c(C)c4O)ncc3c2)C1 [Compound 120] | < 100
9 | 1000 to 10000 | 100 to 1000 | 100 to 1000 | Cc1c(O)c(-c2cc(Cl)c3cc(N(C)[C@H]4CCNC4)cnc3n2)cc2cn(C)nc12 [Compound 294] | 100 to 1000
10 | 100 to 1000 | < 100 | < 100 | Cc1c(O)c(-c2cc(Cl)c3cc(N4CCC(N(C)C)C4)cnc3n2)cc2cn(C)nc12 (centres unmarked) [Compound 143, 5-{4-chloro-6-[3-(dimethylamino)357pyrrolidine-1-yl]-1,8-naphthyridin-2-yl}-2,7-dimethylindazol-6-ol] | < 100
11 | < 100 | < 100 | < 100 | CN[C@H]1CCN(c2cnc3nc(-c4cc(C)c5nc(C)cn5n4)ccc3c2)C1 [Compound 116] | < 100
12 | 100 to 1000 | < 100 | < 100 | CN[C@@H]1CCN(c2cnc3nc(-c4cc5cn(C)nc5c(C)c4O)ccc3c2)C1 [Compound 112] | < 100
13 | 100 to 1000 | 100 to 1000 | 100 to 1000 | Cc1cn2nc(-c3cc(Cl)c4cc(N5CCC(N(C)C)CC5)cnc4n3)cc(C)c2n1 [Compound 348] | 100 to 1000
14 | < 100 | < 100 | < 100 | C[C@H]1CN(c2cnc3nc(-c4cc5cn(C)nc5c(F)c4O)cc(Cl)c3c2)C[C@H](C)N1 [Compound 280] | < 100
15 | 100 to 1000 | 100 to 1000 | 100 to 1000 | Cn1cc2cc(-c3ccc4cc(N5CCC(NC(C)(C)C)C5)cnc4n3)c(O)cc2n1 (centres unmarked) [Compound 134, 5-{6-[3-(tert-butylamino)pyrrolidin-1-yl]-1,8-naphthyridin-2-yl}-2-methylindazol-6-ol hydrochloride] | 100 to 1000
16 | 1000 to 10000 | 100 to 1000 | 100 to 1000 | Cc1cn2cc(-c3cc(Cl)c4cc(N5CCNCC5)cnc4n3)cc(F)c2n1 [Compound 153, 4-chloro-2-{8-fluoro-2-methylimidazo[1,2-a]pyridin-6-yl}-6-(piperazin-1-yl)-1,8-naphthyridine] | < 100

Row | IC50 [1] [nM] | IC50 [2, 3] [nM] | IC50 [2, 5] [nM] | Structure (SMILES) | AC50 [2, 4] [nM]
17 | 100 to 1000 | < 100 | < 100 | CN[C@H]1CN(c2cnc3nc(-c4cc5cn(C)nc5c(C)c4O)ccc3c2)C[C@@H]1C [Compound 127, 2,7-dimethyl-5-{6-[(3S,4R)-3-methyl-4-(methylamino)384pyrrolidine-1-yl]-1,8-naphthyridin-2-yl}indazol-6-ol] | 100 to 1000
18 | 100 to 1000 | 100 to 1000 | 100 to 1000 | CCN[C@H]1CCN(c2cnc3nc(-c4cc5cn(C)nc5cc4O)ccc3c2)C1 [Compound 311, 5-{6-[(3S)-3-(ethylamino)pyrrolidin-1-yl]-1,8-naphthyridin-2-yl}-2-methylindazol-6-ol hydrochloride] | 100 to 1000
19 | 100 to 1000 | < 100 | < 100 | Cc1c(O)c(-c2ccc3cc(N4CCC(NCC5CC5)C4)cnc3n2)cc2cn(C)nc12 (stereo in doubt) [Compound 119, 5-{6-[(3R)-3-[(cyclopropylmethyl)amino]pyrrolidin-1-yl]-1,8-naphthyridin-2-yl}-2,7-dimethylindazol-6-ol] | < 100
20 | 1000 to 10000 | < 100 | < 100 | Cc1cn2cc(-c3cc(Cl)c4cc(N5C[C@H](C)N[C@@H](C)C5)cnc4n3)cc(F)c2n1 [Compound 298] | < 100
21 | 100 to 1000 | < 100 | < 100 | Cc1cc(-c2cc3cn(C)nc3c(C)c2O)nc2ncc(N3CCNCC3)cc12 [Compound 151, 2,7-dimethyl-5-[4-methyl-6-(piperazin-1-yl)-1,8-naphthyridin-2-yl]indazol-6-ol] | < 100
22 | 100 to 1000 | 100 to 1000 | 100 to 1000 | CN[C@@H]1CN(c2cnc3nc(-c4cc5cn(C)nc5c(C)c4O)ccc3c2)C[C@@H]1F [Compound 132, 5-{6-[(3S,4R)-3-fluoro-4-(methylamino)pyrrolidin-1-yl]-1,8-naphthyridin-2-yl}-2,7-dimethylindazol-6-ol] | < 100
23 | < 100 | < 100 | < 100 | Cc1c(O)c(-c2ccc3cc(N4CC[C@@H](NCC5CC5)C4)cnc3n2)cc2cn(C)nc12 [Compound 118] | < 100
24 | 100 to 1000 | < 100 | < 100 | CN[C@@H]1CN(c2cnc3nc(-c4cc5cn(C)nc5c(C)c4O)ccc3c2)C[C@H]1F (single isomer, unassigned) [Compound 130] | < 100
25 | < 100 | < 100 | < 100 | CN[C@@H]1CCN(c2cnc3nc(-c4cc5cn(C)nc5c(C)c4O)cc(Cl)c3c2)C1 [Compound 286, 5-{4-chloro-6-[(3R)-3-(methylamino)pyrrolidin-1-yl]-1,8-naphthyridin-2-yl}-2,7-dimethylindazol-6-ol hydrochloride] | < 100
26 | 100 to 1000 | < 100 | < 100 | Cc1c(O)c(-c2cc(Cl)c3cc(N4C[C@@H](C)N[C@@H](C)C4)cnc3n2)cc2cn(C)nc12 [Compound 149] | < 100
27 | 100 to 1000 | < 100 | < 100 | CNC1CCN(c2cnc3nc(-c4cc5cn(C)nc5c(C)c4O)cc(Cl)c3c2)C1 (centres unmarked) [Compound 142, 5-{4-chloro-6-[3-(methylamino)351pyrrolidine-1-yl]-1,8-naphthyridin-2-yl}-2,7-dimethylindazol-6-ol] | < 100
28 | 100 to 1000 | < 100 | < 100 | Cn1cc2cc(-c3cc(Cl)c4cc(N5CCNC6(CC6)C5)cnc4n3)c(O)c(F)c2n1 [Compound 274] | < 100
29 | 100 to 1000 | < 100 | < 100 | C[C@@H]1CN(c2cnc3nc(-c4cc5cn(C)nc5c(F)c4O)cc(Cl)c3c2)C[C@H](C)N1 [Compound 279] | < 100
30 | 100 to 1000 | < 100 | < 100 | CN[C@@H]1CN(c2cnc3nc(-c4cc5cn(C)nc5c(C)c4O)ccc3c2)C[C@@H]1C [Compound 128] | 100 to 1000
31 | 1000 to 10000 | 100 to 1000 | 100 to 1000 | C[C@H]1CN(c2cnc3nc(-c4cc(F)c5nn(C)cc5c4)cc(Cl)c3c2)C[C@@H](C2CC2)N1 [Compound 288] | 100 to 1000
32 | 100 to 1000 | 100 to 1000 | 100 to 1000 | Cc1cn2nc(-c3cc(Cl)c4cc(N5CCC(N6CCC6)CC5)cnc4n3)cc(C)c2n1 [Compound 349] | 100 to 1000
